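GI50 = concentration required for 50% inhibition of growth. TGI: concentration producing complete growth inhibition.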
Legend:
Assay in all cases: DTP human tumour cell line panel, 384-well format
DU-145 prostate = tested on: DU-145 prostate
PC-3 prostate = tested on: PC-3 prostate
NCI-H322M lung = tested on: NCI-H322M lung
IGROV1 ovarian = tested on: IGROV1 ovarian
SNB-19 CNS = tested on: SNB-19 CNS
SF-295 CNS = tested on: SF-295 CNS
SK-MEL-5 melanoma = tested on: SK-MEL-5 melanoma
KM12 colon = tested on: KM12 colon
A549 NSCLC = tested on: A549 NSCLC
OVCAR-4 ovarian = tested on: OVCAR-4 ovarian
ACHN renal = tested on: ACHN renal
SW-620 colon = tested on: SW-620 colon
RPMI-8226 leukemia = tested on: RPMI-8226 leukemia
TK-10 renal = tested on: TK-10 renal
NCI-H460 NSCLC = tested on: NCI-H460 NSCLC
UACC-62 melanoma = tested on: UACC-62 melanoma
M14 melanoma = tested on: M14 melanoma
NCI-H23 lung = tested on: NCI-H23 lung
UO-31 renal = tested on: UO-31 renal
HT29 colon = tested on: HT29 colon
LOX IMVI melanoma = tested on: LOX IMVI melanoma
UACC-257 melanoma = tested on: UACC-257 melanoma
A498 renal = tested on: A498 renal
MDA-MB-468 breast = tested on: MDA-MB-468 breast
U251 glioblastoma = tested on: U251 glioblastoma
HS 578T breast = tested on: HS 578T breast
HCC-2998 colon = tested on: HCC-2998 colon
SK-OV-3 ovarian = tested on: SK-OV-3 ovarian
MALME-3M melanoma = tested on: MALME-3M melanoma
HCT-15 colon = tested on: HCT-15 colon
HOP-92 NSCLC = tested on: HOP-92 NSCLC
HL-60(TB) leukemia = tested on: HL-60(TB) leukemia
NCI-H226 lung = tested on: NCI-H226 lung
K-562 leukemia = tested on: K-562 leukemia
OVCAR-3 ovarian = tested on: OVCAR-3 ovarian
EKVX NSCLC = tested on: EKVX NSCLC
HCT-116 colon = tested on: HCT-116 colon
SF-268 CNS = tested on: SF-268 CNS
OVCAR-8 ovarian = tested on: OVCAR-8 ovarian
SF-539 CNS = tested on: SF-539 CNS
BT-549 breast = tested on: BT-549 breast
HOP-62 NSCLC = tested on: HOP-62 NSCLC
SN12C renal = tested on: SN12C renal
NCI-H522 lung = tested on: NCI-H522 lung
SK-MEL-28 melanoma = tested on: SK-MEL-28 melanoma
CCRF-CEM leukemia = tested on: CCRF-CEM leukemia
786-0 renal = tested on: 786-0 renal
MOLT-4 leukemia = tested on: MOLT-4 leukemia
CAKI-1 renal = tested on: CAKI-1 renal
T-47D breast = tested on: T-47D breast
OVCAR-5 ovarian = tested on: OVCAR-5 ovarian
NCI/ADR-RES ovarian = tested on: NCI/ADR-RES ovarian
MCF7 breast = tested on: MCF7 breast
MDA-MB-435 melanoma = tested on: MDA-MB-435 melanoma
SNB-75 CNS = tested on: SNB-75 CNS

In the case of `CC[C@@H](C)Nc1cc(C(=O)NC2CC3CCC(C2)N3c2ccc(C(=O)C3CC3)cn2)c(C)cc1C(N)=O` (some centres undefined), the GI50 (DU-145 prostate) is reported as 23.8 nM, the TGI (DU-145 prostate) is reported as 732 nM and the GI50 (PC-3 prostate) is reported as 28.3 nM. For the same compound, the TGI (PC-3 prostate) was 85.9 nM, the GI50 (NCI-H322M lung) was 27.5 nM and the TGI (NCI-H322M lung) was 19.1 µM. The GI50 (IGROV1 ovarian) was 13 nM, the TGI (IGROV1 ovarian) was 85.9 nM and the GI50 (SNB-19 CNS) was 41.6 nM. For the same compound, the TGI (SNB-19 CNS) was 17.3 µM, the GI50 (SF-295 CNS) was 24.2 nM and the TGI (SF-295 CNS) was 65.3 nM. The GI50 (SK-MEL-5 melanoma) was 19.7 nM, the TGI (SK-MEL-5 melanoma) was 10.6 µM and the GI50 (KM12 colon) was 19.9 nM. It also gave a TGI (KM12 colon) of 1620 nM, a GI50 (A549 NSCLC) of under 10 nM and a TGI (A549 NSCLC) of 11.7 µM. The GI50 (OVCAR-4 ovarian) was 6.75 µM, the TGI (OVCAR-4 ovarian) was 23.5 µM and the GI50 (ACHN renal) was 45 nM. For the same compound, the TGI (ACHN renal) was 28.4 µM, the GI50 (SW-620 colon) was 26.2 nM and the TGI (SW-620 colon) was 78.8 nM. It also gave a GI50 (RPMI-8226 leukemia) of 25.1 nM, a TGI (RPMI-8226 leukemia) of 85.6 nM and a GI50 (TK-10 renal) of 42 nM. For the same compound, the TGI (TK-10 renal) was 32.8 µM, the GI50 (NCI-H460 NSCLC) was under 10 nM and the TGI (NCI-H460 NSCLC) was 24.3 nM. The GI50 (UACC-62 melanoma) was 26.4 nM, the TGI (UACC-62 melanoma) was 81.1 nM and the GI50 (M14 melanoma) was 31 nM. It also gave a TGI (M14 melanoma) of 12.8 µM, a GI50 (NCI-H23 lung) of 17.6 nM and a TGI (NCI-H23 lung) of 53.6 nM. The GI50 (UO-31 renal) was 42.8 nM, the TGI (UO-31 renal) was 67.7 µM and the GI50 (HT29 colon) was under 10 nM. For the same compound, the TGI (HT29 colon) was 11.5 µM, the GI50 (LOX IMVI melanoma) was 16.6 nM and the TGI (LOX IMVI melanoma) was 31.7 nM. For the same compound, the GI50 (UACC-257 melanoma) was 62.1 nM, the TGI (UACC-257 melanoma) was 25.1 µM and the GI50 (A498 renal) was 23.3 nM. It also gave a TGI (A498 renal) of 17.6 µM, a GI50 (MDA-MB-468 breast) of 17.9 nM and a TGI (MDA-MB-468 breast) of 42.8 nM. For the same compound, the GI50 (U251 glioblastoma) was 23.2 nM, the TGI (U251 glioblastoma) was 65.6 nM and the GI50 (HS 578T breast) was 40.3 nM. The TGI (HS 578T breast) was 236 nM, the GI50 (HCC-2998 colon) was under 10 nM and the TGI (HCC-2998 colon) was 39.6 nM. For the same compound, the GI50 (SK-OV-3 ovarian) was 24.9 nM, the TGI (SK-OV-3 ovarian) was 15 µM and the GI50 (MALME-3M melanoma) was 19.9 nM. For the same compound, the TGI (MALME-3M melanoma) was 78.5 nM, the GI50 (HCT-15 colon) was 36.1 nM and the TGI (HCT-15 colon) was 15 µM. For the same compound, the GI50 (HOP-92 NSCLC) was 28.5 nM, the TGI (HOP-92 NSCLC) was 70.8 nM and the GI50 (HL-60(TB) leukemia) was 12.6 nM. It also gave a TGI (HL-60(TB) leukemia) of 26.3 nM, a GI50 (NCI-H226 lung) of 30.3 nM and a TGI (NCI-H226 lung) of 171 nM. It also gave a GI50 (K-562 leukemia) of 19.9 nM, a TGI (K-562 leukemia) of 205 nM and a GI50 (OVCAR-3 ovarian) of 24.5 nM. The TGI (OVCAR-3 ovarian) was 84.1 nM, the GI50 (EKVX NSCLC) was 36.7 nM and the TGI (EKVX NSCLC) was 17.7 µM. The GI50 (HCT-116 colon) was 36.8 nM, the TGI (HCT-116 colon) was 14.9 µM and the GI50 (SF-268 CNS) was 11 nM. For the same compound, the TGI (SF-268 CNS) was 36.3 nM, the GI50 (OVCAR-8 ovarian) was 20.6 nM and the TGI (OVCAR-8 ovarian) was 44.6 nM. For the same compound, the GI50 (SF-539 CNS) was 20 nM, the TGI (SF-539 CNS) was 51.1 nM and the GI50 (BT-549 breast) was 12.5 nM. The GI50 (HOP-62 NSCLC) was 29.5 nM, the TGI (HOP-62 NSCLC) was 13.7 µM and the GI50 (SN12C renal) was 24.8 nM. The TGI (SN12C renal) was 76.6 nM, the GI50 (NCI-H522 lung) was 19.4 nM and the TGI (NCI-H522 lung) was 46.3 nM. It also gave a GI50 (SK-MEL-28 melanoma) of 43.7 nM, a TGI (SK-MEL-28 melanoma) of 21.6 µM and a GI50 (CCRF-CEM leukemia) of under 10 nM. For the same compound, the TGI (CCRF-CEM leukemia) was 37 nM, the GI50 ([…]-0 renal) was 33.2 nM and the TGI (786-0 renal) was 11.7 µM. For the same compound, the GI50 (MOLT-4 leukemia) was under 10 nM, the TGI (MOLT-4 leukemia) was 17.6 nM and the GI50 (CAKI-1 renal) was 46.2 nM. The TGI (CAKI-1 renal) was 19.2 µM, the GI50 (T-47D breast) was 12.2 nM and the TGI (T-47D breast) was 52.8 nM. It also gave a GI50 (OVCAR-5 ovarian) of 39.9 nM, a TGI (OVCAR-5 ovarian) of 30.8 µM and a GI50 (NCI/ADR-RES ovarian) of 277 nM. The TGI (NCI/ADR-RES ovarian) was 782 nM, the GI50 (MCF7 breast) was under 10 nM and the TGI (MCF7 breast) was 237 nM. For the same compound, the GI50 (MDA-MB-435 melanoma) was 62.6 nM, the TGI (MDA-MB-435 melanoma) was 23.3 µM and the GI50 (SNB-75 CNS) was 82.4 nM. For the same compound, the TGI (SNB-75 CNS) was 464 nM.
